# Assay results as given in PubChem BioAssay AID1645865 (Buhrlage Lab, Dana-Farber Cancer Institute and Novartis …, 2021).
# The source made the active and inactive calls.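 Rule for the calls: active = maximal inhibition of the USP30 enzyme reaching 30% or more across the dose series; inactive = the rest.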
# Molecular target: Ubiquitin carboxyl-terminal hydrolase 30 (Homo sapiens) (UniProt Q70CQ3)
# Experiment: inhibitors of ubiquitin-specific protease 30 deubiquitylating enzyme, concentration dependence, in vitro biochemical, validation of primary hits (AID 1645865)
# Details: purified USP30, Ub-rhodamine cleavage, fluorescence, 2 h
# Ubiquitin carboxyl-terminal hydrolase 30 (Homo sapiens), sequence (Q70CQ3 whole entry, looked up): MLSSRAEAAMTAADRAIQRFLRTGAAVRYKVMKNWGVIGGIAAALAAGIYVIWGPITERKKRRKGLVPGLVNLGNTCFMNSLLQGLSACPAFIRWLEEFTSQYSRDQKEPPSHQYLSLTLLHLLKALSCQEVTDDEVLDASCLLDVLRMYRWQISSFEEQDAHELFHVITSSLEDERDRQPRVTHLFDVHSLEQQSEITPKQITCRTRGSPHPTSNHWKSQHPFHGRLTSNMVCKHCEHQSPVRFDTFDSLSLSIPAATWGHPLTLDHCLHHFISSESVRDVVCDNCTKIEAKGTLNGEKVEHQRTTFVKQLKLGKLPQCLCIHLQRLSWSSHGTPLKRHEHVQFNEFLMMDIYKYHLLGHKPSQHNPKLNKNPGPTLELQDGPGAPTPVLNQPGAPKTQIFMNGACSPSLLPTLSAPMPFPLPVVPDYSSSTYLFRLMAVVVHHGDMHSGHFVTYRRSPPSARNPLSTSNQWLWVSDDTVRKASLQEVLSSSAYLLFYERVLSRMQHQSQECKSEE
row,SMILES,IC50
1,Cc1cc(C#N)c2c(C)ccc(C(C)C)cc1-2,> 50 µM (inactive)
2,CC(=O)Nc1cccc(NC(=O)COc2cccc3ccc(N4CCCC4)nc23)c1,> 50 µM (inactive)
3,COc1cc2c(cc1NC(=O)c1ccc(-n3cnnn3)cc1)oc1ccccc12,0.221 µM
4,Cc1cc(Cl)ccc1NC(=O)c1cc(-c2cccnc2)n[nH]1,> 50 µM (inactive)
5,O=S(=O)(O)c1cc2cc3ccccc3cc2[nH]1,> 50 µM (inactive)
6,CCCN1CCN(C(=O)c2cc(NC(=O)C3CCC3)cc3nc(C)ccc23)CC1,> 50 µM (inactive)
7,Cc1cc(NC(=O)c2[nH]nc3c2CCc2ccccc2-3)no1,4.47 µM
8,O=C(CCCn1c(=O)c2ccccc2n(CC(=O)NCc2ccccc2Cl)c1=O)NCc1ccc2c(c1)OCO2,1.69 µM
9,COc1ccccc1CNC(=O)c1ccc(CSc2nc3ccncc3n2Cc2ccccc2)cc1,44.9 µM
10,O=C(Cc1ccccc1F)Nc1nc(-c2ccco2)c(-c2ccco2)s1,> 50 µM (inactive)
11,O=C(Nc1cccc(F)c1)C1CCCN(S(=O)(=O)N2CCCCCC2)C1 (stereo not drawn),36.4 µM
12,Cc1ccc2[nH]c(=O)c(CN(CC3CCCO3)S(=O)(=O)c3ccccc3)cc2c1 (stereo not drawn),39.4 µM
13,NS(=O)(=O)c1cc(C(=O)OCC(=O)c2ccc3c(c2)OCCO3)ccc1Cl,> 50 µM (inactive)
14,COc1ccc(CCNC(=O)CSc2cn(CCNC(=O)c3ccc(F)cc3)c3ccccc23)cc1OC,19.9 µM
15,Cc1noc(-c2cc(=O)n(CC(=O)NCc3ccccc3)c3ccccc23)n1,> 50 µM (inactive)
16,COC(=O)c1ccc(C(=O)Nc2cc3ccccc3cc2NC(=O)c2ccc(C(=O)OC)cc2)cc1,0.853 µM
17,Cc1ccc(N=Cc2sc(O)c3ccccc23)c(C)c1,> 50 µM (inactive)
18,Clc1cccc(N2CCN(c3ncnc4nc[nH]c34)CC2)c1,24.6 µM
19,CC(C)N1C[C@@H]2C[C@H](NS(=O)(=O)c3cccc(C#N)c3)CN2Cc2ccccc21,> 50 µM (inactive)
20,Fc1ccc(-c2noc(-c3nnc(NCc4cccnc4)c4ccccc34)n2)cc1,1.92 µM
21,CSc1nc2ncn(CC(=O)Nc3cccc(Cl)c3)c(=O)c2s1,4.75 µM
22,COc1ccc(-n2cc(C(=O)NCc3ccc4c(c3)OCO4)c3ccccc3c2=O)cc1,31.9 µM
23,C/C=C1/C2=CCCN3C(=O)O[C@H]([C@H]1O)[C@H]23,> 50 µM (inactive)
24,CCn1ccc2c(cc(C(=O)Nc3ccccc3F)n2C)c1=O,> 50 µM (inactive)
25,Clc1cc2nc(N3CCN(c4ccccn4)CC3)c3nncn3c2cc1Cl,2.16 µM

row,SMILES,IC50
1,CNC(=O)c1cc2nc(N(C)C)n(-c3ccccc3)c2s1,> 50 µM (inactive)
2,N#Cc1ccc(Cn2nnc(-c3cccc(Cl)c3)n2)cc1,> 50 µM (inactive)
3,Fc1ccccc1Cc1nc(-c2ccc3nncn3c2)no1,> 50 µM (inactive)
4,CCn1cc2c(n1)c(=O)n(Cc1ccc(C)cc1)c(=O)n2CC(=O)Nc1ccc(F)cc1,3.47 µM
5,CCN(c1ccc(NC(=O)CSc2nnc(-c3ccccc3)n2-c2ccc(OC)c(OC)c2)cc1)C(C)C,2.07 µM
6,O=C(CSc1nc2cc(S(=O)(=O)Nc3ccccc3Cl)ccc2o1)Nc1ccc(N2CCOCC2)cc1,49.6 µM
7,Cc1cc(C)c(O)c(-c2cc(C(=O)Nc3ccccc3Cl)[nH]n2)c1,2.1 µM
8,Cc1ncncc1C(=O)N1CCCC(C)(c2ncc(Cc3cccc(F)c3)o2)C1 (stereo not drawn),> 50 µM (inactive)
9,O=C(CNC(=O)OCc1ccccc1)Nc1ccc(Br)cc1C(=O)c1ccccc1Cl,5.77 µM
10,Fc1cccc(Cn2cc(-c3noc(-c4cccnc4)n3)nn2)c1,26.4 µM
11,Cc1nnc(Sc2cc(C(=O)NCCN3CCCC3)c3ccccc3n2)s1,> 50 µM (inactive)
12,COc1ccc(C(=O)NCCc2nnc3ccc(SCC(=O)NCc4ccc(F)cc4)nn23)cc1,15.8 µM
13,O=c1[nH]c(C2CCN(S(=O)(=O)c3ccc(S(=O)(=O)NC4CCCCC4)cc3)CC2)nc2c1nnn2Cc1c(Cl)cccc1Cl,12.1 µM
14,O=c1[nH]c(C2CCN(S(=O)(=O)c3ccc(S(=O)(=O)NC4CCCCC4)cc3)CC2)nc2c1nnn2Cc1c(F)cccc1Cl,22.8 µM
15,O=C(Nc1ccc2c(c1)OCCO2)c1ccc(N2CCCCC2)nn1,> 50 µM (inactive)
16,c1ccc(-c2ccc(NCc3ccc4c(c3)OCO4)nn2)cc1,35.1 µM
17,Cc1ccc2c(c1)c(=O)c(C(=O)c1ccc(F)cc1)cn2CC(=O)Nc1ccc2c(c1)OCCO2,> 5 µM (inactive)
18,CC(C)=CCC/C(C)=C/C[C@]1(O)C(=O)c2cc(O)cc(O)c2C(=O)[C@@]1(Cl)CC=C(C)C,> 50 µM (inactive)
19,O=C(NCc1ccccc1Cl)C1CCCN(c2nc3ccsc3c(=O)s2)C1 (stereo not drawn),0.965 µM
20,COCC(=O)Nc1cc(F)c2nc(N3CCOCC3)ccc2c1,> 50 µM (inactive)
21,Cc1cnc(CN2CCCC(c3ccc4cn[nH]c4n3)C2)cn1 (stereo not drawn),> 50 µM (inactive)
22,O=S(=O)(c1ccc2c(c1)OCCO2)N(Cc1ccccc1)Cc1nnc(-c2ccccc2)o1,> 50 µM (inactive)
23,CC1CCCCN1c1nc(F)c2c(c1F)S(=O)(=O)CCN2Cc1ccccc1 (stereo not drawn),> 50 µM (inactive)
24,COc1ccc(C(C(=O)NC2CCCCC2)N(C(=O)CCCC(=O)Nc2ccccn2)c2ccccc2C)cc1 (stereo not drawn),19.3 µM
25,Cc1ccc(-c2nc(N3CCCC(O)C3)ncc2-c2cnccn2)s1 (stereo not drawn),> 50 µM (inactive)

row,SMILES,IC50
1,COc1ccc(-c2nc(SCC(=O)Nc3ccc(Cl)cc3F)n[nH]2)cc1,> 50 µM (inactive)
2,Cc1c(C(=O)Nc2ccc(-c3nnc4n3CCCCC4)cc2)oc2c1ccc1ccccc12,> 50 µM (inactive)
3,Cc1cc(Nc2ccc(C(=O)NCc3ccco3)cc2)n2nc(-c3cccnc3)nc2n1,> 50 µM (inactive)
4,O=C(Cn1c(=O)n(Cc2ccc(F)cc2)c(=O)c2sccc21)Nc1cccc(Cl)c1,4.47 µM
5,Cc1cc(Cl)ccc1Nc1nc(Nc2cccc(F)c2)nc2nccnc12,> 50 µM (inactive)
6,Cc1ccccc1NC(=O)CNc1nc(Nc2ccccc2)nc(Nc2ccccc2)n1,26.4 µM
7,CCc1cccc2c(C(=O)COc3ccc(C#N)cc3)c[nH]c12,11.3 µM
8,CN(Cc1ccccc1)S(=O)(=O)c1ccc(S(=O)(=O)N2CCN(C(=O)c3cccnc3)CC2)cc1,15.8 µM
9,CC(=O)N1CCCC(c2nc(C)cc(-c3cc(F)ccc3C(=O)O)n2)C1 (stereo not drawn),> 50 µM (inactive)
10,O=S(=O)(c1cccc(F)c1)N1CCN(c2nnnn2-c2ccccc2)CC1,31.4 µM
11,CCN(CC)C(=O)CN1CCCC(c2ncncc2-c2cc(C)no2)C1 (stereo not drawn),> 50 µM (inactive)
12,O=C(NCc1ccc(-c2nc3cnccc3o2)cc1)c1ccccc1F,17.5 µM
13,COc1ccc(C(=O)Nc2nc(-c3ccc4c(c3)NC(=O)CO4)c(C)s2)cc1OC,1.68 µM
14,COc1cccc(-c2cc(C(=O)Nc3cc(C)n(Cc4ccc(Cl)cc4)n3)no2)c1,4.38 µM
15,N#Cc1cc2c(nc1SCC(=O)NCc1ccccc1)CCCC2,> 50 µM (inactive)
16,CC(C)CC(=O)Nc1cc(F)c2nc(N3CCOCC3)ccc2c1,> 50 µM (inactive)
17,CCS(=O)(=O)c1ccccc1C(=O)Nc1ccc2sc(C)nc2c1,> 50 µM (inactive)
18,Cc1ccc2cc3c(nc2n1)CCN(Cc1ccc(F)cc1)C3,> 50 µM (inactive)
19,CCOc1ccccc1C(=O)Oc1ccc2c(C)cc(=O)oc2c1,23.1 µM
20,N=C1C(c2nc3ccccc3s2)=C(O)CN1Cc1ccc(F)cc1,> 50 µM (inactive)
21,COC(=O)c1ccc(Cn2cnc3ccc(Br)cc3c2=O)o1,> 50 µM (inactive)
22,COc1cccc2c1OCC(C(=O)NCc1ccc(F)cc1)=C2,> 50 µM (inactive)
23,Cc1ccc(NC(=O)c2cc(=O)n(C)c3c2c(=O)n(C)c(=O)n3C)c(C)c1,> 50 µM (inactive)
24,CN=C(N)NCCC/C=C/CCCC(C)CC(C)C1OC(=O)/C=C/C(C)C(O)CC(O)C(C)C(O)CCC(C)C(O)CC2(O)OC(CC(OC(=O)CC(=O)O)CC(O)CC(O)C(C)C(O)/C=C/C1C)CC(O)C2O (stereo not drawn),27.5 µM
25,O=c1sc2ccccc2c(=O)n1Cc1cccc(C(F)(F)F)c1,> 50 µM (inactive)

row,SMILES,IC50
1,Fc1ccc(Nc2nc(Nc3cccc(F)c3)nc3nccnc23)cc1,> 50 µM (inactive)
2,O=C(NC1CC1)c1ccnn1-c1ccc2ccc(-c3ccncc3)cn12,> 50 µM (inactive)
3,O=C(CN1C(=O)COc2ccc(Cl)cc21)Nc1cccc2ncccc12,> 50 µM (inactive)
4,CCCN1C=NS(=O)(=O)c2cc(C(=O)Nc3ccc(OC)c(Cl)c3)ccc21,12.5 µM
5,CCOC(=O)CSc1nnc(-c2cnn(-c3ccccc3)c2N)o1,18.2 µM
6,Cc1cccc(COc2ccc(C3SCC(=O)Nc4n[nH]c(C)c43)cc2)c1 (stereo not drawn),8.16 µM
7,Cc1nc(N2CCCC2)ncc1C(=O)Nc1ccc(F)c(F)c1,31.1 µM
8,Cc1ccc2c(c1)N(C)C(=O)c1cc(NC(=O)c3ccc(F)cc3)ccc1O2,2.71 µM
9,C[C@H](NC(=O)Cc1ccccc1F)c1nc2cc(-c3ccccc3F)ncn2n1,> 50 µM (inactive)
10,O=C(NCCCc1nc2ccccc2n1Cc1c(Cl)cccc1Cl)c1ccco1,25 µM
11,COc1ccc(C)cc1NC(=O)C1CC(=O)Nc2nc(SCc3ccccc3)nn21 (stereo not drawn),15.7 µM
12,COc1ccccc1NS(=O)(=O)c1cccc(NC(=O)CCc2nc3ccccc3s2)c1,4.01 µM
13,CNC(=O)c1cc2c(=O)n3cccc(C)c3nc2n1Cc1ccccc1,2.29 µM
14,Cc1nc2nc(SCc3nc4ccccc4n3C)[nH]c2cc1Br,4.82 µM
15,O=C(NCc1ccccc1)c1ccc2c(=O)n(-c3ccccc3)c(=O)[nH]c2c1,16 µM
16,CC1=C(c2ccc(Cl)cc2)S(=O)(=O)NC1=NCC(=O)Nc1ccc(F)cc1,17 µM
17,Fc1cccc(Cn2cc(-c3noc(-c4ccncc4)n3)nn2)c1,22.8 µM
18,Cc1ccc(C2=Nc3ccccc3N(CC(=O)Nc3cccc(C)c3C)C(=O)C2)cc1C,4.93 µM
19,Cc1ccccc1C(=O)Nc1ccc(Cc2ccc(NC(=O)c3ccccc3C)c(O)c2)cc1O,> 50 µM (inactive)
20,O=C(Nc1ccc2c(c1)OCO2)c1cc(-c2cccnc2)n(-c2ccccc2)n1,> 50 µM (inactive)
21,O=C(Cn1c(=O)n(CCCC(=O)N2CC=C(c3ccccc3)CC2)c(=O)c2ccccc21)NCCC1=CCCCC1,> 50 µM (inactive)
22,Cc1ccc(CNC(=O)c2ccc(N3C(=O)[C@@H]4Cc5ccccc5CN4C3=O)cc2)cc1,23.6 µM
23,CC(=O)Nc1cc(-c2cccc(O)c2)cn2c(-c3cnn(C)c3)cnc12,2.9 µM
